Experimental data from ChEMBL document CHEMBL1128141, “Chemical modification of ring c of himbacine: Discovery of a pharmacophoric element for M2-selectivity” (Bioorg Med Chem Lett, 1995).

How the values were obtained:
[1] = target: T1, Muscarinic acetylcholine receptor M1 (Homo sapiens, UniProt P11229); experiment: Binding affinity against M1 receptor expressed in CHO-K1 cells transfected with human muscarinic receptor sequence using radioligand [3H]quinuclidinyl benzilate ([3H]QNB); assay type: cell-based
T1 sequence (P11229 whole entry): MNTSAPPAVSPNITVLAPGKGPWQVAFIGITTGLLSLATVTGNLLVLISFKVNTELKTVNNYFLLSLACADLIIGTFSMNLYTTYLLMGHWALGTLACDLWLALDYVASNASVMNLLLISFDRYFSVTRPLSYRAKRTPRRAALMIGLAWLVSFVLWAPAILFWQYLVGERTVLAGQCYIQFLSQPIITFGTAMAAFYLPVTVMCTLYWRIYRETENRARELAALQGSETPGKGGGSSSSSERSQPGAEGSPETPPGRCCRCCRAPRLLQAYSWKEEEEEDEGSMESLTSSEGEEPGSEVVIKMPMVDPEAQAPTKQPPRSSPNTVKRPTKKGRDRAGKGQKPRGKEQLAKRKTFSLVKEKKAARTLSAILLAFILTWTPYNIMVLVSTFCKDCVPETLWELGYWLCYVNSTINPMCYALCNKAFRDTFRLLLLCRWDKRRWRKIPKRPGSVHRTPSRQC

[2] = target: Muscarinic acetylcholine receptors; M1 & M2 (Homo sapiens) (UniProt P11229+P08172); experiment: Ratio of binding affinities towards M2 receptor to M1 receptor; assay type: protein assay
[3] = target: T2, Muscarinic acetylcholine receptor M2 (Rattus norvegicus, UniProt P10980); experiment: Binding affinity against M2 receptor in rat brainstem cells using radioligand [3H]quinuclidinyl benzilate ([3H]QNB); assay type: cell-based, Brain
T2 sequence (P10980 whole entry): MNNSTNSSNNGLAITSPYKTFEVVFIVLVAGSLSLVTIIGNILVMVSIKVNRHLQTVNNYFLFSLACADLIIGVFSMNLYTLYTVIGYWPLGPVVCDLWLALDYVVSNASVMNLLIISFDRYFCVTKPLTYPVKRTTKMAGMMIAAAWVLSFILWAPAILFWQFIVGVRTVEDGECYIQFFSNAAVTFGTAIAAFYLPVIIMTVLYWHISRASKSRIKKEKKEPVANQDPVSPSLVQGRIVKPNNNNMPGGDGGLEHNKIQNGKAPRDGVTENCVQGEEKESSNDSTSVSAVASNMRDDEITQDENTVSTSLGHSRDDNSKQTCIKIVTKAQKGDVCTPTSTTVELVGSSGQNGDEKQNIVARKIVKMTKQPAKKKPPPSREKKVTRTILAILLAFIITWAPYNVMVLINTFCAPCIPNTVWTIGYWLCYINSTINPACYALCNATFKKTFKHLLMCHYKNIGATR

Compound	Kd [1]	Selectivity [2]	Kd [3]
CC(=O)O[C@H]1O[C@@H](C)[C@@H]2[C@H](/C=C/[C@H]3CCC[C@H](C)N3C)[C@H]3CCCC[C@@H]3C[C@H]12	866 nM	9.7	89 nM
C[C@@H]1OC(=O)[C@H]2C[C@H]3CCCC[C@@H]3[C@@H](/C=C/[C@H]3CCC[C@H](C)N3C)[C@@H]12 [HIMBACINE]	148 nM	14.8	10 nM
C[C@@H]1O[C@H](OC(=O)C(C)(C)C)[C@H]2C[C@H]3CCCC[C@@H]3[C@@H](/C=C/[C@H]3CCC[C@H](C)N3C)[C@H]21	2520 nM	5.4	464 nM
C[C@@H]1OC[C@H]2C[C@H]3CCCC[C@@H]3[C@@H](/C=C/[C@H]3CCC[C@H](C)N3C)[C@H]21	167 nM	0.5	353 nM
CC(=O)OC[C@H]1C[C@H]2CCCC[C@@H]2[C@@H](/C=C/[C@H]2CCC[C@H](C)N2C)[C@H]1[C@H](C)OC(C)=O	605 nM	2.4	249 nM
C[C@H](O)[C@H]1[C@@H](CO)C[C@H]2CCCC[C@@H]2[C@H]1/C=C/[C@H]1CCC[C@H](C)N1C	494 nM	1.7	293 nM
C[C@@H]1O[C@H](O)[C@H]2C[C@H]3CCCC[C@@H]3[C@@H](/C=C/[C@H]3CCC[C@H](C)N3C)[C@H]21	423 nM	4.4	96 nM
